What was measured:
PIG-W [1] = target: T1, PIG-W (Homo sapiens, UniProt Q7Z7B1); experiment: In vitro acylation assay with membranes of the PIG-W strain; assay type: biochemical; details: membranes of low copy plasmid strain
T1 construct: expressed in transfected cells; host or cells: S. cerevisiae BY4741-derived gwt1 deletion shuttle strain carrying a pAG415GPD-based PIG-W plasmid
T1 sequence (Q7Z7B1 1-504): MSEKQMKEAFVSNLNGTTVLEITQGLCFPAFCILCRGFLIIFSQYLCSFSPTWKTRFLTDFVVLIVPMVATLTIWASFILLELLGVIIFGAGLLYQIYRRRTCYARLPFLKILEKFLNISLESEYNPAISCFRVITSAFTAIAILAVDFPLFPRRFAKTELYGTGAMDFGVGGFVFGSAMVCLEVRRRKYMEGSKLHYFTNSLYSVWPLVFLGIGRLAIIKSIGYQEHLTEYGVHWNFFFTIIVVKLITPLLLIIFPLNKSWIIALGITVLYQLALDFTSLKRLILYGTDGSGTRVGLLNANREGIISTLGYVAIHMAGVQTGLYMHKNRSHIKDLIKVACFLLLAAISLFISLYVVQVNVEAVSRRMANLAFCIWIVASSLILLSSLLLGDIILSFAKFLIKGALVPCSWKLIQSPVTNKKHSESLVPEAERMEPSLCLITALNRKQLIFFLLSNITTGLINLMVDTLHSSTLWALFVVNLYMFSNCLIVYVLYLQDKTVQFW
Procedure: Photographs were taken after 24 hours. DMSO-treated cultures have large, dense colonies of C. albicans which are not present in gepinacin-treated cultures. (B) Anti-fungal susceptibility testing of S. cerevisiae strains in which the endogenous GWT1 gene had been replaced by plasmid-driven expression of the human gene (PIG-W), or the fungal gene (GWT1). CEN plasmids are low copy, […] plasmids are high copy.
Experiments were performed using a previously published protocol (Umemara, et al. (2003) J Biol Chem 278, 23639-23647) with the following modifications; UDP[^3H]GlcNAc was used instead of [^14C] and TLC plates were imaged by autoradiography. Lipid extracts were treated overnight with phosphatidylinositol-specific phospholipase C to confirm that the band identified as GlcN-(acyl)PI was resistant to cleavage (data not shown).

PIG-W [2] = target: T1, PIG-W; experiment: Growth of S. cerevisiae strain whose GWT1 is replaced by the human gene PIG-W; assay type: cell-based
Procedure: Sensitivity to gepinacin was determined in 96-well, flat bottom microtiter plates using a modification of the NCCLS broth microdilution protocol CLS M27-A3 and RPMI as culture medium. Fungi were inoculated at ˜10^3 cells per ml and incubated for 48 hours at 37° C. after which plates were sealed, shaken and the optical density read at 600 nm (OD600) on a Tecan Safire 2 plate reader. All samples were run in duplicate or triplicate and assays were repeated at least once. Results are expressed as fraction of growth in the absence of compound and the mean and standard deviation are plotted. For the mold A. terreus, inoculum was 10^4 cells per ml and plates were incubated at 35° C. for 48 hours in the dark. Plates were then visually scored as specified by CLSI document M38-A2 to determine the MIC50 and MIC80.
Because GWT1 deletion is lethal in S. cerevisiae strain BY4741, a haploid shuttle strain was constructed in which the genomic copy of GWT1 was deleted and replaced by GWT1 on a plasmid that also encoded the URA3 gene and a G418-resistance gene. […]
An S. cerevesiae strain was generated in which the endogenous Gwt1 gene was deleted. […] Shown in FIGS. 22A-D show the effect of the indicated compounds on growth (assessed by OD600) and viability (assessed using Bactiter Glo) of the yeast strain with high copy or low copy plasmid containing S. cerevesiae Gwt1. […]

## COc1ccc(NC(=O)COc2cccc(OCC(C)C)c2)cc1 [gepinacin]
PIG-W [1]
  activity of the human enzyme (GlcN-(acyl)PI formation): not inhibited
PIG-W [2]
  activity against PigW / in the PIG-W expressing strain: inactive

Reference: patent US9505735B2, “Compounds for treating infectious diseases” (Whitehead Institute for Biomedical Research, priority 2012, dated 2016)
